Experimental data taken from patent US7018828B1, “Microbial culture medium containing agar and iota carrageenan” (priority 2001, dated 2006).

Columns and labels:
[1] = Syneresis of Mueller-Hinton agar at various iota carrageenan concentrations with and without calcium; format: physicochemical; conditions: 1 mM calcium added; media with 0.4%, 0.6% and 0.8% iota carrageenan
Protocol: In a second example, research was conducted to determine the ability of iota carrageenan to stabilize agar gels at a variety of concentrations of carrageenan with and without calcium. The results of this research are summarized in the tables of FIG. 41A entitled: “The Effect of Iota Carrageenan, Without Added Calcium, on Syneresis of Mueller-Hinton Agar,” and in FIG. 42A, entitled: “The Effect of Iota Carrageenan, with 1 mM added Calcium, on Syneresis of Mueller-Hinton Agar. The graphs associated with the above two figures found in FIG. 41B and 42B pictorially illustrate the syneresis-reducing-effect of iota carrageenan and the synergistic effects of adding calcium with certain concentrations of iota carrageenan

[2] = Syneresis of agar-based media (Blood, Chocolate, MacConkey, Azide blood agar) after storage; format: physicochemical; conditions: 0.2% iota carrageenan plus 1 mM calcium chloride; each of four agars; 28 days at 5° C.
Protocol: In a first example, the ability of iota carrageenan to stabilize agar-based media was assessed. The media chosen for this example were used in several of the embodiments of the agar-based media of the invention listed in this application. More specifically, in this example, Blood agar, Chocolate agar, MacConkey agar, and Azide blood agar were each prepared three different ways: (1) without any additions, to serve as a control, (2) with the addition of 0.2% (final concentration) Iota Carrageenan, and (3) with the addition of 0.2% Iota Carrageenan plus 1 mM Calcium chloride. These additions were made at time of hydration as described above, and prior to autoclaving. Following the sterilization step (autoclaving), the processes of preparing blood agar, chocolate agar and azide blood agar from the base media were performed using standard microbiology methods. Defibrinated sterile sheep red blood cells and sodium azide were two of the reagents used. The complete MacConkey medium was prepared using all three ways prior to autoclaving. Each of the twelve different media were dispensed at 50° C. into four polystyrene sterile T-flasks (25 cm^2) with tight-fitting screw caps and stored for 28 days at refrigerator temperature(5° C.), at which point the amount of water of syneresis was measured. […]

For [Ca+2].[Cl-].[Cl-] [calcium, Calcium chloride], the “syneresis of Mueller-Hinton agar, effect of adding calcium” value [1] was “effect of adding calcium is also apparent” and the “amount of water of syneresis, effect of adding calcium to carrageenan media” value [2] was “further reduced the amount of syneresis”.
